Tests used:
[1] = biological target: GST-tag full length MDM2 (Homo sapiens (Human), UniProt Q00987); assay: MDM2-p53 TR-FRET Binding Assays; details: MDM2 / biotin p53 peptide
Excerpt: MDM2-p53 TR-FRET Binding Assays
Examples are listed in the following.

[2] = test system: SJSA-1; assay: Cell proliferation inhibition (CCK-8) against SJSA-1; type: cell-based; details: SJSA-1 human osteosarcoma cells, 5 days
Procedure: Cellular data of selected compounds against SW480 and SJSA-1 was conducted according to the following protocol.
Cells in the logarithmic growth phase were seeded into 96-well plates (Corning, 3599; 180 μL/well; 3000 cells/well for both SW480 and SJSA-1 cell lines) and cultured in an incubator (Thermo, 3111) for 24 h. Cells were then treated in triplicate by adding 20 μL/well solution containing different concentrations of the tested compounds in 5% CO2 at 37° C. for 5 days. After that, cells were treated for additional 4 h by adding 10 μL/well Cell Counting Kit-8 (CCK-8; DojinDo, CK04) solution. Finally, the absorbance was read at 450 nm with a microplate reader spectra-MAX190 (Molecular Devices, Sunnyvale, Calif.). The IC50 value was determined with SofeMax Pro, a software equipped in this reader. The cell proliferation inhibition rate was calculated as: proliferation inhibition (%)=[1-(A450 treated/A450 control)]×100%.
All the tested compounds could be dissolved in DMSO at 10^−2 M (as stock solution). […] The compounds were diluted at 9 3-fold serial concentrations beginning at the initial concentration of 10 μM (i.e., the highest final concentration to treat the cells). The detailed drug dilution protocol is: Add 5 μL stock solution (10^−2 M) into 495 μL medium, transfer 125 μL of the resulting solution (100 μM) into 250 μL medium, and repeat this till the 9th resulting concentration of 15.2 nM. Pipet 20 μL of each drug dilution into cell plates.

GST-tag full length MDM2, sequence (Q00987 whole entry): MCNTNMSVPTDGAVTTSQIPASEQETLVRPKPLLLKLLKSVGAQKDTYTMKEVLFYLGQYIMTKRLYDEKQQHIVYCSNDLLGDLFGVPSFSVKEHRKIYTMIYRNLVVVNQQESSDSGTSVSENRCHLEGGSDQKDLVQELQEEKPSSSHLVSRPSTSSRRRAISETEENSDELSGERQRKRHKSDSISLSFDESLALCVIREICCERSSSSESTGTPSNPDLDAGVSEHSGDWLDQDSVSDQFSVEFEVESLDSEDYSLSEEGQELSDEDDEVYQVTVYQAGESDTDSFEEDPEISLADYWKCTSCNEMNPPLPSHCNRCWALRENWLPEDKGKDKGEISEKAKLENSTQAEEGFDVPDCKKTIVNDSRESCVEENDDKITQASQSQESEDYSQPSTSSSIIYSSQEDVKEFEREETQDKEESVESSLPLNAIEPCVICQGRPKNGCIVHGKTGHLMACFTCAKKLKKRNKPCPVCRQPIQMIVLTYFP

Row | IC50 [1] | IC50 ([2]; Homo sapiens, SJSA-1, 120 h) | IC50 [2] | SMILES
1 | ≤ 7.2 nM | ≤ 71 nM |  | COc1cc(C(=O)O)ccc1NC(=O)[C@@H]1N[C@@H](C[C@H](C)C(F)(F)F)[C@@]2(C(=O)Nc3cc(Cl)ccc32)[C@H]1c1cccc(Cl)c1F (racemic) [Example 10, 4-[[(2′R,3R,3′S,5′S)-6-chloro-3′-(3-chloro-2-fluoro-phenyl)-2-oxo-5′-[(2S)-3,3,3-trifluoro-2-methyl-propyl]spiro[indoline-3,4′-pyrrolidine]-2′-carbonyl]amino]-3-methoxy-benzoic acid]
2 | ≤ 7.2 nM | ≤ 71 nM |  | COc1cc(C(=O)O)ccc1NC(=O)[C@@H]1N[C@@H](C[C@@H](C)C(F)(F)F)[C@@]2(C(=O)Nc3cc(Cl)ccc32)[C@H]1c1cccc(Cl)c1F (racemic) [Example 11, 4-[[(2′R,3R,3′S,5′S)-6-chloro-3′-(3-chloro-2-fluoro-phenyl)-2-oxo-5′-[(2R)-3,3,3-trifluoro-2-methyl-propyl]spiro[indoline-3,4′-pyrrolidine]-2′-carbonyl]amino]-3-methoxy-benzoic acid]
3 | ≤ 7.2 nM | ≤ 71 nM |  | COc1cc(C(N)=O)ccc1NC(=O)[C@@H]1N[C@@H](C[C@H](C)C(F)(F)F)[C@@]2(C(=O)Nc3cc(Cl)ccc32)[C@H]1c1cccc(Cl)c1F (racemic) [Example 12, (2′R,3R,3′S,5′S)-N-(4-carbamoyl-2-methoxy-phenyl)-6-chloro-3′-(3-chloro-2-fluoro-phenyl)-2-oxo-5′-[(2S)-3,3,3-trifluoro-2-methyl-propyl]spiro[indoline-3,4′-pyrrolidine]-2′-carboxamide]
4 | ≤ 7.2 nM | ≤ 71 nM |  | COc1cc(C(N)=O)ccc1NC(=O)[C@@H]1N[C@@H](C[C@@H](C)C(F)(F)F)[C@@]2(C(=O)Nc3cc(Cl)ccc32)[C@H]1c1cccc(Cl)c1F (racemic) [Example 13, (2′R,3R,3′S,5′S)-N-(4-carbamoyl-2-methoxy-phenyl)-6-chloro-3′-(3-chloro-2-fluoro-phenyl)-2-oxo-5′-[(2R)-3,3,3-trifluoro-2-methyl-propyl]spiro[indoline-3,4′-pyrrolidine]-2′-carboxamide]
5 | ≤ 3.6 nM | ≤ 71 nM |  | COc1cc(C(=O)O)ccc1NC(=O)[C@@H]1N[C@@H](CC(C)(C)CF)[C@@]2(C(=O)Nc3cc(Cl)ccc32)C1c1cccc(Cl)c1F (mixture of isomers) [Example 19, 4-[(2′R,3R,3′S,5′S)-6-chloro-3′-(3-chloro-2-fluoro-phenyl)-5′-(3-fluoro-2,2-dimethyl-propyl)-2-oxo-spiro[indoline-3,4′-pyrrolidine]-2′-carbonyl]amino-3-methoxy-benzoic acid]
6 | ≤ 3.6 nM | ≤ 71 nM |  | COc1cc(C(N)=O)ccc1NC(=O)[C@@H]1N[C@@H](CC(C)(C)CF)[C@@]2(C(=O)Nc3cc(Cl)ccc32)C1c1cccc(Cl)c1F (mixture of isomers) [Example 20, (4-carbamoyl-2-methoxy-phenyl) (2′R,3R,3′S,5′S)-6-chloro-3′-(3-chloro-2-fluoro-phenyl)-5′-(3-fluoro-2,2-dimethyl-propyl)-2-oxo-spiro[indoline-3,4′-pyrrolidine]-2′-carboxamide]
7 | ≤ 3.6 nM | ≤ 20 nM |  | COc1cc(C(N)=O)ccc1NC(=O)[C@@H]1N[C@@H](CC(C)(C)CF)[C@@]2(C(=O)Nc3cc(Cl)ccc32)C1c1cccc(Cl)c1F (single isomer, unassigned) [Example 22]
8 |  | 71 to 550 nM |  | CCOC(=O)c1ccc(NC(=O)[C@@H]2N[C@@H](C[C@H](C)C(F)(F)F)[C@@]3(C(=O)Nc4cc(Cl)ccc43)[C@H]2c2cccc(Cl)c2F)c(OC)c1 [Example 9b, ethyl 4-[[(2′R,3R,3′S,5′S)-6-chloro-3′-(3-chloro-2-fluoro-phenyl)-2-oxo-5′-[(2S)-3,3,3-trifluoro-2-methyl-propyl]spiro[indoline-3,4′-pyrrolidine]-2′-carbonyl]amino]-3-methoxy-benzoate]
9 | ≤ 3.6 nM | ≤ 20 nM |  | COc1cc(C(=O)O)ccc1NC(=O)[C@@H]1N[C@@H](CC(C)(C)CF)[C@@]2(C(=O)Nc3cc(Cl)ccc32)[C@H]1c1cccc(Cl)c1F [Example 21, 4-[(2′R,3R,3′S,5′S)-6-chloro-3′-(3-chloro-2-fluoro-phenyl)-5′-(3-fluoro-2,2-dimethyl-propyl)-2-oxo-spiro[indoline-3,4′-pyrrolidine]-2′-carbonyl]amino-3-methoxy-benzoic acid]
10 | ≤ 7.2 nM |  | ≤ 500 nM | CCOC(=O)c1ccc(NC(=O)[C@@H]2N[C@@H](C[C@@H](C)C(F)(F)F)[C@@]3(C(=O)Nc4cc(Cl)ccc43)[C@H]2c2cccc(Cl)c2F)c(OC)c1 [Example 26, ethyl-4-[[(2′R,3′R,3′S,5′S)-6-chloro-3′(3-chloro-2-fluoro-phenyl)-2-oxo-5′-[(2R)-3,3,3-trifluoro-2-methyl-propyl]spiro[indoline-2,4′-pyrrolidine]-2′-carbonyl]amino]-3-methoxy-benzoate]
11 | ≤ 3.6 nM | ≤ 20 nM |  | COc1cc(C(=O)O)ccc1NC(=O)[C@@H]1N[C@@H](C[C@@H](C)C(F)(F)F)[C@@]2(C(=O)Nc3cc(Cl)ccc32)[C@H]1c1cccc(Cl)c1F [Example 27, 4-[[(2′R,3R,3′S,5′S)-6-chloro-3′-(3-chloro-2-fluoro-phenyl)-2-oxo-5′-[(2R)-3,3,3-trifluoro-2-methyl-propyl]spiro[indoline-3,4′-pyrrolidine]-2′-carbonyl]amino]-3-methoxy-benzoic acid]
12 | ≤ 3.6 nM | ≤ 20 nM |  | COc1cc(C(N)=O)ccc1NC(=O)[C@@H]1N[C@@H](C[C@@H](C)C(F)(F)F)[C@@]2(C(=O)Nc3cc(Cl)ccc32)[C@H]1c1cccc(Cl)c1F [Example 28, (2′R,3R,3′S,5′S)-N-(4-carbamoyl-2-methoxy-phenyl)-6-chloro-3′-(3-chloro-2-fluoro-phenyl)-2-oxo-5′-[(2R)-3,3,3-trifluoro-2-methyl-propyl]spiro[indoline-3,4′-pyrrolidine]-2′-carboxamide]
13 | ≤ 3.6 nM | ≤ 20 nM |  | COc1cc(C(=O)O)ccc1NC(=O)[C@@H]1N[C@@H](C[C@H](C)C(F)(F)F)[C@@]2(C(=O)Nc3cc(Cl)ccc32)[C@H]1c1cccc(Cl)c1F [Example 65, 4-[[(2′R,3R,3′S,5′S)-6-chloro-3′-(3-chloro-2-fluoro-phenyl)-2-oxo-5′-[(2S)-3,3,3-trifluoro-2-methyl-propyl]spiro[indoline-3,4′-pyrrolidine]-2′-carbonyl]amino]-3-methoxy-benzoic acid]
14 | ≤ 3.6 nM | ≤ 20 nM |  | COc1cc(C(N)=O)ccc1NC(=O)[C@@H]1N[C@@H](C[C@H](C)C(F)(F)F)[C@@]2(C(=O)Nc3cc(Cl)ccc32)[C@H]1c1cccc(Cl)c1F [Example 66, (2′R,3R,3′S,5′S)-N-(4-carbamoyl-2-methoxy-phenyl)-6-chloro-3′-(3-chloro-2-fluoro-phenyl)-2-oxo-5′-[(2S)-3,3,3-trifluoro-2-methyl-propyl]spiro[indoline-3,4′-pyrrolidine]-2′-carboxamide]
15 | ≤ 7.2 nM |  |  | COC(=O)c1ccc(NC(=O)[C@@H]2N[C@@H](CC3(CF)CC3)C3(C(=O)Nc4cc(Cl)ccc43)[C@H]2c2cccc(Cl)c2F)c(OC)c1 (stereo partly shown) [Example 73, 4-{[6-chloro-4′-(3-chloro-2-fluoro-phenyl)-2′-(1-fluoromethyl-cyclopropylmethyl)-2-oxo-1,2-dihydro-spiro[indole-3,3′-pyrrolidin]e-5′-carbonyl]-amino}-3-methoxy-benzoic acid methyl ester]
16 | ≤ 7.2 nM | ≤ 20 nM |  | COc1cc(C(=O)O)ccc1NC(=O)[C@@H]1N[C@@H](CC2(CF)CC2)C2(C(=O)Nc3cc(Cl)ccc32)[C@H]1c1cccc(Cl)c1F (stereo partly shown) [Example 74, 4-{[6-chloro-4′-(3-chloro-2-fluoro-phenyl)-2′-(1-fluoromethyl-cyclopropylmethyl)-2-oxo-1,2-dihydro-spiro[indole-3,3′-pyrrolidin]e-5′-carbonyl]-amino}-3-methoxy-benzoic acid]
17 | ≤ 7.2 nM | ≤ 20 nM |  | COc1cc(C(N)=O)ccc1NC(=O)[C@@H]1N[C@@H](CC2(CF)CC2)C2(C(=O)Nc3cc(Cl)ccc32)[C@H]1c1cccc(Cl)c1F (stereo partly shown) [Example 75, 6-chloro-4′-(3-chloro-2-fluoro-phenyl)-2′-(1-fluoromethyl-cyclopropylmethyl)-2-oxo-1,2-dihydro-spiro[indole-3,3′-pyrrolidine]-5-carboxylic acid (4-carbamoyl-2-methoxy-phenyl)-amide]
18 | ≤ 7.2 nM | ≤ 20 nM |  | COc1cc(C(=O)O)ccc1NC(=O)[C@@H]1N[C@@H](CC2(CF)CC2)[C@@]2(C(=O)Nc3cc(Cl)ccc32)[C@H]1c1cccc(Cl)c1F [Example 76, 4-[[(2′R,3R,3′S,5′S)-6-chloro-3′-(3-chloro-2-fluoro-phenyl)-5′-[[1-(fluoromethyl)cyclopropyl]methyl]-2-oxo-spiro[indoline-3,4′-pyrrolidine]-2′-carbonyl]amino]-3-methoxy-benzoic acid]

— US9701685B2, “Spiropyrrolidines as MDM2 inhibitors” (HUDSON BIOPHARMA INC., priority 2014, dated 2017)
